Measured values as given in patent US11484564B2, “Adhesion prevention material” (priority 2017, dated 2022).
Entries after “also recorded” stand apart in the source; their conditions may differ. Non-standard residues stand in square brackets, D forms with d. No end group written: not given here. Hyp = O=C(O)[C@@H]1C[C@@H](O)CN1

System: flexor digitorum profundus tendon
Test: Evaluation of antiadhesive effect in cut and sutured flexor digitorum profundus tendon (adhesion score, 3 portions)
Type: in vivo, rabbit
Conditions: 0.15 mL, 2 weeks
Description: As supplied animals, 13-week old rabbits (Kbl: JW, male) were used. By the same procedure as in the above-described Test Example 1, anesthesia, hair removal, holding, and sterilization were performed. Next, the skin covering a metatarsus of the left hind limb was incised longitudinally under anesthesia to expose flexor tendons. Among the exposed flexor tendons, a flexor digitorum profundus tendon was cut by sharp dissection using a scalpel. Then, the dissected region of the flexor digitorum profundus tendon was sutured with a suture (trade name: “6-0 Prolene”, Ethicon, Inc.) by a modified Kessler technique, hemostasis and washing with physiological saline were performed. Then, test samples were administered to the exposed flexor digitorum profundus tendon and its surroundings. The test samples were administered as follows. […] Then, the incised portion was sutured with a suture (trade name: “5-0 suture with needle for clinical use”, Matsuda Ika Kogyo CO., LTD.). The rabbit was fed with an e-collar around the neck to prevent self-injurious behavior. At 2 weeks after administration of the test sample, the rabbit was painlessly sacrificed by an overdose of Somnopentil (a trade name “pentobarbital sodium”, Kyoritsu Seiyaku Corporation) by auricular vein administration. The operated site was incised again, and degrees of adhesion were evaluated according to the criteria with respect to the following three portions: between flexor digitorum profundus tendon and gliding floor, between flexor digitorum profundus tendon and flexor digitorum superficialis tendon, and between flexor digitorum profundus tendon and other surrounding tissues. The total of the scores of the three portions was designated as a score for the individual. <Evaluation Criteria> 0: No adhesion 1: Easily dissectable from surrounding tissues by blunt dissection 2: Dissectable from surrounding tissues by blunt dissection 3: Dissection from surrounding tissues requires slightly sharp dissection 4: Dissection from surrounding tissues requires completely sharp dissection

[1] = Test Example 5, peptide 30% by weight with crosslinked-gelatin sponge gel powder (B) 20% by weight
[2] = Test Example 6, peptide 30% by weight with gel powder (B) 20% by weight
[3] = Test Example 7, peptide 30% by weight with gel powder (B) 20% by weight
[4] = Test Example 9, tripeptide 30% by weight with gel powder (B) 20% by weight

For Gly-Pro-[Hyp] [tripeptide 4], which antiadhesive effect [1] is on record?
Its antiadhesive effect is “the same antiadhesive effect as in the case in which both peptide mixture 1 and the crosslinked-gelatin sponge gel were administered was observed”.

And the antiadhesive effect [2]?
Its antiadhesive effect is “contribute to the antiadhesive effect”.

What about the antiadhesive effect [3] of the same substance?
Its antiadhesive effect is “antiadhesive effects were observed”.

And the antiadhesive effect [4]?
The antiadhesive effect was “antiadhesive effects were observed”.

How did the antiadhesive effect [4] turn out when Arg-Pro-[Hyp] [tripeptide 7] was run?
Its antiadhesive effect is “antiadhesive effects were observed”.

For Pro-Hyp [dipeptide 1], which antiadhesive effect [2] is on record?
The antiadhesive effect was “contribute to the antiadhesive effect”.

For “Gly-Ala-[Hyp] [tripeptide 2, reference compound]”, which antiadhesive effect [1] is on record?
The antiadhesive effect was “the antiadhesive effect was inferior to the case in which peptide mixture 1 was used”.

With Asn-Pro-[Hyp] [tripeptide 6] as the substance, how does the antiadhesive effect [4] read?
The antiadhesive effect was “antiadhesive effects were observed”.

With (Gly-Pro-Hyp)10 [polypeptide 1] as the substance, how does the antiadhesive effect [3] read?
Its antiadhesive effect is “antiadhesive effects were observed; also recorded: lower than those in tripeptide 4 and oligopeptide 1”.

For Ile-Pro-[Hyp] [tripeptide 5], which antiadhesive effect [4] is on record?
Its antiadhesive effect is “antiadhesive effects were observed”.

How did the antiadhesive effect [4] turn out when Tyr-Pro-[Hyp] [tripeptide 8] was run?
Its antiadhesive effect is “antiadhesive effects were observed”.

With “Gly-Pro-Ala [tripeptide 3, reference compound]” as the substance, how does the antiadhesive effect [1] read?
The antiadhesive effect was “the antiadhesive effect was inferior to the case in which peptide mixture 1 was used”.

Which antiadhesive effect [3] does the source give for (Gly-Pro-Hyp)5 [oligopeptide 1] here?
Its antiadhesive effect is “antiadhesive effects were observed”.

For “Gly-Pro [dipeptide 2, reference compound]”, which antiadhesive effect [2] is on record?
The antiadhesive effect was “the antiadhesive effect was decreased”.
